From article PMC8670242, “Functional Characterization and Structural Insights Into Stereoselectivity of Pulegone Reductase in Menthol Biosynthesis” (Frontiers in Plant Science, 2021)

Target: T1, ArPR (Agastache rugosa, UniProt A0A977TNC5)
T1 construct: pET28a (BamHI/SacI) His-tag fusion, E. coli BL21(DE3), Ni-NTA and gel filtration
Test: in vitro reduction, GC
Format: biochemical
Details: NADPH

T1 sequence (A0A977TNC5 1-343): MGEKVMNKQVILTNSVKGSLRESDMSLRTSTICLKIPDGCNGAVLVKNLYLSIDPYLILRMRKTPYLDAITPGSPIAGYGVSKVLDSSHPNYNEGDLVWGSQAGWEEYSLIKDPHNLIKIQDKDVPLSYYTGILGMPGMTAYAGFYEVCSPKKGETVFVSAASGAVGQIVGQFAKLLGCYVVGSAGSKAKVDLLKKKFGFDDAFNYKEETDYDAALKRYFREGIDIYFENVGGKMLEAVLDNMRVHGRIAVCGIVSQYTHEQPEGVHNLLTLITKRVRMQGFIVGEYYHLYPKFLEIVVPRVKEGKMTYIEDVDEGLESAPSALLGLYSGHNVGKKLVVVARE

With `CC(C)=C1CC[C@H](C)CC1=O` [(−)-pulegone] the “in vitro reduction, GC” value was “showed a higher preference for (−)-pulegone over (+)-pulegone”.
